In US20210252028A1, “SYNTHETIC COMPOSITION FOR MICROBIOTA MODULATION” (Glycom A/S, priority 2016, published 2021):

Assays:
[1] = tested on: totality of B. longum + B. bifidum + B. animalis lactis + B. angulatum; assay: ITS profiling of the Bifidobacterium community in faeces of healthy adults after 2 weeks of HMO consumption; format: in vivo, human; conditions: faecal analyses
Protocol: (§1) A total of 100 male and female healthy adults are recruited to participate in the study. After a screening visit and run-in period of 1-2 weeks, the participants are selected and randomized into ten groups, each of 10 subjects. One group is administered a placebo product containing 2 grams of glucose. The remaining 9 groups are administered treatment product containing a) 20 g of 2′-FL, b) 10 g of 2′-FL, c) 5 g of 2′-FL, d) 20 g of LNnT, e) 10 g of LNnT, f) 5 g of LNnT, g) 20 g of a 2:1 mixture of 2′-FL and LNnT, h) 10 g of a 2:1 mixture of 2′-FL and LNnT, and i) 5 g of a 2:1 mixture of 2′-FL and LNnT for 2 weeks (the amounts correspond to a daily dosis). The placebo and treatment products are in powder form in a unit dosage container.
(§2) The study runs for 2 weeks with the participants consuming either a placebo or a treatment product daily. Participants are instructed to consume the products in the morning with breakfast. Compliance is monitored through the interactive internet enabled system.
(§3) To assess the Bifidobacterium community, ITS profiling of DNA samples is performed according to Milani et al. FEMS Microbiol. Ecol. 90, 493 (2014). […] Both B. adolescentis and B. pseudocatenulatum are members of the B. adolescentis phylogenetic group. It can be seen that oral ingestion of the HMOs clearly increases the abundance of B. adolescentis and/or B. pseudocatenulatum in the microbiota of healthy adults, as well as their relative abundance compared to the totality of other Bifidobacterium species.

[2] = tested on: B. adolescentis phylogenetic group; assay: as above; format: in vivo, human; conditions: for percentage increase of B. adolescentis phylogenetic group: healthy adults, 2 weeks, faecal analyses
Protocol: as §1, §2, §3

Row | Molecule | percentage increase of totality of B. longum + B. bifidum + B. animalis lactis + B. angulatum ([1]; daily dose 5 g) | percentage increase of totality of B. longum + B. bifidum + B. animalis lactis + B. angulatum ([1]; daily dose 10 g) | percentage increase of totality of B. longum + B. bifidum + B. animalis lactis + B. angulatum ([1]; daily dose 20 g) | abundance of B. adolescentis and/or B. pseudocatenulatum and relative abundance compared to the totality of other Bifidobacterium species ([2]; healthy adults carrying the FUT2 mutation compared with secretors) | percentage increase of B. adolescentis phylogenetic group ([2]; daily dose 5 g) | percentage increase of B. adolescentis phylogenetic group ([2]; daily dose 10 g) | percentage increase of B. adolescentis phylogenetic group ([2]; daily dose 20 g)
1 | 2′-fucosyllactose [2′-FL] | 0% | 20% | 15% | increases in a manner similar to those in secretors | 50% | 325% | 120%
2 | CC(=O)N[C@H]1[C@H](O[C@H]2[C@@H](O)[C@@H](CO)O[C@@H](O[C@H]3[C@H](O)[C@@H](O)C(O)O[C@@H]3CO)[C@@H]2O)O[C@H](CO)[C@@H](O[C@@H]2O[C@H](CO)[C@H](O)[C@H](O)[C@H]2O)[C@@H]1O (mixture of isomers) [LNnT, lacto-N-neotetraose] | 50% | 130% | 105% |  | 90% | 195% | 185%
